Measurements: US8735425B2, “Tetrahydroisoquinoline derivative” (Daiichi Sankyo Company, Limited, priority 2008, dated 2014)

Columns and labels:
[1] = target: T1, DGAT1 enzyme (Homo sapiens, UniProt O75907); experiment: DGAT1 inhibitory activity test; format: biochemical; conditions: test compound concentration of 0.05 μg/ml; read-out: Inhibitory Rate
T1 construct: made in house
T1 sequence (O75907 1-488): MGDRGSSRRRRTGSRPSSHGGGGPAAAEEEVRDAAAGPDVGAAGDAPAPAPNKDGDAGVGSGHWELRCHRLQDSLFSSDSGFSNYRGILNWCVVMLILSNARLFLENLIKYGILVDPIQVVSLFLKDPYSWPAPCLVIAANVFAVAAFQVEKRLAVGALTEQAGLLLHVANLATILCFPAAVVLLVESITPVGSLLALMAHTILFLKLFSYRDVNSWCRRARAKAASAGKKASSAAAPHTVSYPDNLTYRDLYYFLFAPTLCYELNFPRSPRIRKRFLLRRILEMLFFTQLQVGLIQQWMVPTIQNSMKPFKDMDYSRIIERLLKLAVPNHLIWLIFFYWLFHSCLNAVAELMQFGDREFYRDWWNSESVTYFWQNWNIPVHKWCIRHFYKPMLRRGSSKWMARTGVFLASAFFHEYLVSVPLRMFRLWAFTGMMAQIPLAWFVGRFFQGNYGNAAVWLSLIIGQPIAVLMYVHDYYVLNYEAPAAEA
Procedure, shortened: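 Reaction at 23° C for 30 min in 175 mM Tris-HCl pH 8.0, 8 mM MgCl2, 1 mg/ml BSA, 0.5% Triton X-100 with 0.3 mM 1,2-dioleoyl-sn-glycerol and 10 μM [14C]-oleoyl-CoA. Triglyceride extracted into heptane, separated by TLC, radioactivity quantified; % inhibition versus vehicle control, 0-min background subtracted.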

[2] = system: Male C57BL/6N mice; experiment: Triglyceride absorption suppression after fat loading (in vivo DGAT1 inhibitory effect); conditions: Mus musculus, po; dose of 10 mg/kg or lower, orally administered, mice fasted overnight, plasma triglyceride after fat loading; read-out: Triglyceride absorption suppressive activity
Procedure: The DGAT1 enzyme is important for the digestion and absorption of triglycerides, and the inhibition of DGAT1 in the small intestine suppresses the absorption of triglycerides. The in vivo activity of its DGAT1 inhibitory effect was evaluated with the suppressed absorption of triglycerides after fat loading as an index. Male C57BL/6N mice (7-12 weeks old, body weight: 17-25 g, Charles River Laboratories Japan Inc.) fasted overnight were assigned to Vehicle group 1, Vehicle group 2, and each test compound group, to which a vehicle (0.5% methylcellulose) or each test compound (1 to 10 mg/kg) suspended in vehicle was orally administered (5 mL/kg). After a given time, a lipoprotein lipase inhibitor (Pluronic-F127: Sigma-Aldrich Corp., 1 g/kg, 20% by weight dissolved in saline) was intraperitoneally administered (5 mL/kg) to each group. Immediately thereafter, distilled water for the Vehicle group 1 or a 20% fat-containing emulation (Intralipid 20%: TERUMO CORP., Japan) for the Vehicle group 2 and the compound groups were orally administered thereto (0.2 mL/mouse). After a given time of 1 to 4 hours after administration, blood was collected from the tail vein or the right ventricle, and plasma was immediately separated and collected. Then, the triglyceride concentration in plasma was measured using a commercially available kit (Triglyceride E-Test Wako: Wako Pure Chemical Industries, Ltd.). In this method, the administration of the lipoprotein lipase inhibitor suppresses the hydrolysis of triglycerides in the blood such that the triglycerides are accumulated in the blood. These triglycerides are derived from two origins: exogenous triglycerides absorbed in the gastrointestinal tract and endogenous triglycerides released from the liver. The triglyceride absorption suppressive activity of each test compound was calculated based on the equation shown below by removing the influence of the endogenous triglycerides. In this context, each test compound was separately confirmed to have no influence on the concentration of the endogenous triglycerides.
Triglyceride absorption suppressive activity (%)=100−[(Triglyceride concentration of each test compound group)−(Triglyceride concentration of Vehicle group 1)]/[(Triglyceride concentration of Vehicle group 2)−(Triglyceride concentration of Vehicle group 1)]×100

inhibition at 0.05 µg/mL [1] [%]	SMILES	inhibition in vivo at up to 10 mg/kg [2] [%]
≥ 50	O=C(O)C[C@H]1CC[C@H](OC(=O)N2CCc3cc(NC(=O)Nc4ccccc4)ccc3C2)CC1 [Example 50, trans-6-(3-phenyl-ureido)-3,4-dihydro-1H-isoquinoline-2-carboxylic acid 4-carboxymethyl-cyclohexyl ester]	≥ 60
≥ 50	O=C(O)C[C@H]1CC[C@H](OC(=O)N2CCc3cc(NC(=O)Nc4cccc(OC(F)F)c4)ccc3C2)CC1 [Example 51, trans-6-[3-(3-difluoromethoxy-phenyl)-ureido]-3,4-dihydro-1H-isoquinoline-2-carboxylic acid 4-carboxymethyl-cyclohexyl ester]	≥ 60
≥ 50	O=C(O)C[C@H]1CC[C@H](OC(=O)N2CCc3cc(NC(=O)Nc4cccc(OC(F)(F)F)c4)ccc3C2)CC1 [Example 52, trans-6-[3-(3-trifluoromethoxy-phenyl)-ureido]-3,4-dihydro-1H-isoquinoline-2-carboxylic acid 4-carboxymethyl-cyclohexyl ester]	≥ 60
≥ 50	CSc1cccc(NC(=O)Nc2ccc3c(c2)CCN(C(=O)O[C@H]2CC[C@H](CC(=O)O)CC2)C3)c1 [Example 64, trans-6-[3-(3-methylsulfanyl-phenyl)-ureido]-3,4-dihydro-1H-isoquinoline-2-carboxylic acid 4-carboxymethyl-cyclohexyl ester]	≥ 60
≥ 50	O=C(O)C[C@H]1CC[C@H](OC(=O)N2CCc3cc(NC(=O)Nc4cccc(C(F)(F)F)c4)ccc3C2)CC1 [Example 66, trans-6-[3-(3-trifluoromethyl-phenyl)-ureido]-3,4-dihydro-1H-isoquinoline-2-carboxylic acid 4-carboxymethyl-cyclohexyl ester]	≥ 60
≥ 50	O=C(O)C[C@H]1CC[C@H](OC(=O)N2CCc3cc(NC(=O)Nc4cccc(F)c4)ccc3C2)CC1 [Example 67, trans-6-[3-(3-fluoro-phenyl)-ureido]-3,4-dihydro-1H-isoquinoline-2-carboxylic acid 4-carboxymethyl-cyclohexyl ester]	≥ 60
≥ 50	Cc1cccc(NC(=O)Nc2ccc3c(c2)CCN(C(=O)O[C@H]2CC[C@H](CC(=O)O)CC2)C3)c1 [Example 68, trans-6-(3-m-tolyl-ureido)-3,4-dihydro-1H-isoquinoline-2-carboxylic acid 4-carboxymethyl-cyclohexyl ester]	≥ 60
≥ 50	CCc1cccc(NC(=O)Nc2ccc3c(c2)CCN(C(=O)O[C@H]2CC[C@H](CC(=O)O)CC2)C3)c1 [Example 70, trans-6-[3-(3-ethyl-phenyl)-ureido]-3,4-dihydro-1H-isoquinoline-2-carboxylic acid 4-carboxymethyl-cyclohexyl ester]	≥ 60
≥ 50	Cc1ccc(NC(=O)Nc2ccc3c(c2)CCN(C(=O)O[C@H]2CC[C@H](CC(=O)O)CC2)C3)cc1 [Example 71, trans-6-(3-p-tolyl-ureido)-3,4-dihydro-1H-isoquinoline-2-carboxylic acid 4-carboxymethyl-cyclohexyl ester]	≥ 60

The next lines start with the molecule.

SMILES	inhibition at 0.05 µg/mL [1] [%]	inhibition in vivo at up to 10 mg/kg [2] [%]
CCOc1cccc(NC(=O)Nc2ccc3c(c2)CCN(C(=O)O[C@H]2CC[C@H](CC(=O)O)CC2)C3)c1C [Example 53, trans-6-[3-(3-ethoxy-2-methyl-phenyl)-ureido]-3,4-dihydro-1H-isoquinoline-2-carboxylic acid 4-carboxymethyl-cyclohexyl ester]	≥ 50	≥ 60
CCOc1cc(NC(=O)Nc2ccc3c(c2)CCN(C(=O)O[C@H]2CC[C@H](CC(=O)O)CC2)C3)ccc1C [Example 54, trans-6-[3-(3-ethoxy-4-methyl-phenyl)-ureido]-3,4-dihydro-1H-isoquinoline-2-carboxylic acid 4-carboxymethyl-cyclohexyl ester]	≥ 50	≥ 60
CCOc1ccc(C)c(NC(=O)Nc2ccc3c(c2)CCN(C(=O)O[C@H]2CC[C@H](CC(=O)O)CC2)C3)c1 [Example 55, trans-6-[3-(5-ethoxy-2-methyl-phenyl)-ureido]-3,4-dihydro-1H-isoquinoline-2-carboxylic acid 4-carboxymethyl-cyclohexyl ester]	≥ 50	≥ 60
COc1cc(F)cc(NC(=O)Nc2ccc3c(c2)CCN(C(=O)O[C@H]2CC[C@H](CC(=O)O)CC2)C3)c1 [Example 56, trans-6-[3-(3-fluoro-5-methoxy-phenyl)-ureido]-3,4-dihydro-1H-isoquinoline-2-carboxylic acid 4-carboxymethyl-cyclohexyl ester]	≥ 50	≥ 60
O=C(O)C[C@H]1CC[C@H](OC(=O)N2CCc3cc(NC(=O)Nc4ccc(F)c(F)c4)ccc3C2)CC1 [Example 57, trans-6-[3-(3,4-difluoro-phenyl)-ureido]-3,4-dihydro-1H-isoquinoline-2-carboxylic acid 4-carboxymethyl-cyclohexyl ester]	≥ 50	≥ 60
COc1cc(NC(=O)Nc2ccc3c(c2)CCN(C(=O)O[C@H]2CC[C@H](CC(=O)O)CC2)C3)ccc1F [Example 58, trans-6-[3-(4-fluoro-3-methoxy-phenyl)-ureido]-3,4-dihydro-1H-isoquinoline-2-carboxylic acid 4-carboxymethyl-cyclohexyl ester]	≥ 50	≥ 60
CCOc1cc(NC(=O)Nc2ccc3c(c2)CCN(C(=O)O[C@H]2CC[C@H](CC(=O)O)CC2)C3)ccc1F [Example 59, trans-6-[3-(3-ethoxy-4-fluoro-phenyl)-ureido]-3,4-dihydro-1H-isoquinoline-2-carboxylic acid 4-carboxymethyl-cyclohexyl ester]	≥ 50	≥ 60
COc1ccc(F)c(NC(=O)Nc2ccc3c(c2)CCN(C(=O)O[C@H]2CC[C@H](CC(=O)O)CC2)C3)c1 [Example 60, trans-6-[3-(2-fluoro-5-methoxy-phenyl)-ureido]-3,4-dihydro-1H-isoquinoline-2-carboxylic acid 4-carboxymethyl-cyclohexyl ester]	≥ 50	≥ 60
CCOc1ccc(F)c(NC(=O)Nc2ccc3c(c2)CCN(C(=O)O[C@H]2CC[C@H](CC(=O)O)CC2)C3)c1 [Example 61, trans-6-[3-(5-ethoxy-2-fluoro-phenyl)-ureido]-3,4-dihydro-1H-isoquinoline-2-carboxylic acid 4-carboxymethyl-cyclohexyl ester]	≥ 50	≥ 60
CSc1ccc(NC(=O)Nc2ccc3c(c2)CCN(C(=O)O[C@H]2CC[C@H](CC(=O)O)CC2)C3)cc1 [Example 62, trans-6-[3-(4-methylsulfanyl-phenyl)-ureido]-3,4-dihydro-1H-isoquinoline-2-carboxylic acid 4-carboxymethyl-cyclohexyl ester]	≥ 50	≥ 60
O=C(O)C[C@H]1CC[C@H](OC(=O)N2CCc3cc(NC(=O)Nc4ccc(C(F)(F)F)cc4)ccc3C2)CC1 [Example 69, trans-6-[3-(4-trifluoromethyl-phenyl)-ureido]-3,4-dihydro-1H-isoquinoline-2-carboxylic acid 4-carboxymethyl-cyclohexyl ester]	≥ 50	≥ 60
